Like-named read-outs stand apart in the source and are kept apart here.
Biological target: T1, Human GPR120 (Homo sapiens, UniProt Q5NUL3)
T1 construct: Ga16 (promiscuous G protein) fusion partner; expressed in transfected cells
T1 sequence (Q5NUL3 with tags, fused parts or gaps): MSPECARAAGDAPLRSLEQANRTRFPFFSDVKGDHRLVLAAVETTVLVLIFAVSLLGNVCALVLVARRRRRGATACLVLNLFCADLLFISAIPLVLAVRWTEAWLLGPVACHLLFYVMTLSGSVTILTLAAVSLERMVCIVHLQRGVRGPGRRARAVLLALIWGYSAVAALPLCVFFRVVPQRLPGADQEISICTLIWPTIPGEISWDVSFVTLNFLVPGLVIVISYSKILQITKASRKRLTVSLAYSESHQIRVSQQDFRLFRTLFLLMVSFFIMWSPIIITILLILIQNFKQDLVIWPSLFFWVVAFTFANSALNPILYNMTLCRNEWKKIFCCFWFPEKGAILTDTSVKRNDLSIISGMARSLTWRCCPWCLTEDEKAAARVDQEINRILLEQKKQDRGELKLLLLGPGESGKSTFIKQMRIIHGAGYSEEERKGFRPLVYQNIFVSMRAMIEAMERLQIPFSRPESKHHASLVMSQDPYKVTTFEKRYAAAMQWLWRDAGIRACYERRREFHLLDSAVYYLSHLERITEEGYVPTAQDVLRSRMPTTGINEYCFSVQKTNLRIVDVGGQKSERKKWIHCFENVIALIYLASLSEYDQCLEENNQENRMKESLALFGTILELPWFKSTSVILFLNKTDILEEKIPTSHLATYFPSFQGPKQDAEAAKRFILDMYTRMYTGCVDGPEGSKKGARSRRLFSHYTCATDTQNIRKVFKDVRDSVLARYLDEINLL
Assay: FLIPR assay: agonist-induced calcium mobilization in HEK293-GPR120-Ga16 cells
Type: cell-based
Details: for EC50: GPR120 activation, calcium mobilization, HEK293-GPR120-Ga16 cells; for Emax: % enhancement of the test compound relative to a known compound, read-out: % Efficiency
Protocol: Human GPR120 stable cell-line was generated in HEK293 cells. GPR120 (Accession number BC101175) is fused to a promiscuous G protein, Ga16. The expression plasmid is transfected into HEK293 cells using Fugene6 following manufacturer's instruction. Stable cell-lines are generated following drug selection.
FLIPR (Fluorimetric Imaging Plate Reader, Molecular Devices) assays are performed to measure agonist-induced calcium mobilization in the GPR120-expressing cells. One day before the FLIPR assay, HEK293-GPR120-Ga16 cells are seeded into poly-D-lysine coated black-wall-clear bottom 384 well plates (Falcon) at 25,000 cells per well in 40 μl DMEM supplemented with 1% of FBS. The cells are incubated overnight at 37° C. in a humidified incubator. The medium is aspirated on the day of the FLIPR assay. The cells are incubated with 50 μl/well of the assay buffer (HBSS, 20 mM HEPES, 2.5 mM probenecid, pH7.4) containing Fluo-4 NM dye (Invitrogen cat# F36205) at 37° C. for 45 minutes, and then equilibrated at room temperature for 30 minutes. Compounds are dissolved in DMSO and diluted to desired concentrations with assay buffer. Fluorescent output is measured immediately following compound addition (12.5 μl/well) on the FLIPR machine.
An EC50 value was calculated using the change of fluorescent intensity from the reaction initiation. […] In some examples, compounds provided herein have EC50 values from 0.1 μM to 5 μM, while in other examples from 0.5 μM to 5 μM.
The EC50 value in those experiments is given as that concentration of the test compound in question that provoke a response halfway between the baseline and maximum responses. In certain examples compounds of Formula (I) have EC50 values from 0.001 μM to 5 μM. In other examples, compounds of Formula (I) have EC50 values from 0.001 μM to 4 μM. In other examples, compounds of Formula (I) have EC50 values from 0.001 μM to 3 μM. In other examples, compounds of Formula (I) have EC50 values from 0.001 μM to 2 μM. In other examples, compounds of Formula (I) have EC50 values from 0.001 μM to 1 μM. In other examples, compounds of Formula (I) have EC50 values from 0.001 μM to 0.5 μM. […] In other examples, compounds of Formula (I) have EC50 values from 0.001 μM to 0.1 μM.
The % efficiency in those experiments is given as that % enhancement of the test compound in question relative to a known compound. In certain examples compounds of Formula (I) have a % efficiency values from 50% to 150%. In other examples, compounds of Formula (I) have a % efficiency values from 55% to 150%. In other examples, compounds of Formula (I) have a % efficiency values from 60% to 150%. In other examples, compounds of Formula (I) have a % efficiency values from 65% to 150%. In other examples, compounds of Formula (I) have a % efficiency values from 70% to 150%. In other examples, compounds of Formula (I) have a % efficiency values from 75% to 150%. In other examples, compounds of Formula (I) have a % efficiency values from 80% to 150%. In other examples, compounds of Formula (I) have a % efficiency values from 85% to 150%. In other examples, compounds of Formula (I) have a % efficiency values from 90% to 150%. In other examples, compounds of Formula (I) have a % efficiency values from 95% to 150%. In other examples, compounds of Formula (I) have a % efficiency values from 100% to 150%.

EC50 (read-out: EC50 Range) [µM] | Emax [%] | EC50 (read-out: EC50) [µM] | SMILES
0.5 to 1 |  |  | CCn1c(-c2cccc(OCc3ccccc3)c2)cs/c1=N\c1ccc(C(=O)O)cc1 [Compound 26, (Z)-4-(4-(3-(benzyloxy)phenyl)-3-ethylthiazol-2(3H)-ylideneamino)benzoic acid]
0.5 to 1 | 65.9 | 0.7 | CCn1c(-c2cccc(OCc3ccccn3)c2)cs/c1=N\c1ccc(C(=O)O)cc1 [Compound 27, (Z)-4-(3-ethyl-4-(3-(pyridin-2-ylmethoxy)phenyl)thiazol-2(3H)-ylideneamino)benzoic acid]
0.1 to 0.25 |  |  | CCn1c(-c2ccccc2OC)cs/c1=N\c1ccc(S(=O)(=O)O)cc1 [Compound 28, (Z)-4-(3-ethyl-4-(2-methoxyphenyl)thiazol-2(3H)-ylideneamino)benzenesulfonic acid]
0.25 to 0.5 |  |  | CCn1c(-c2cccc(OC)c2)cs/c1=N\c1ccc(S(=O)(=O)O)cc1 [Compound 29, (Z)-4-(3-ethyl-4-(3-methoxyphenyl)thiazol-2(3H)-ylideneamino)benzenesulfonic acid]
0.1 to 0.25 |  |  | CCn1c(-c2ccccc2Cl)cs/c1=N\c1ccc(S(=O)(=O)O)cc1 [Compound 30, (Z)-4-(4-(2-chlorophenyl)-3-ethylthiazol-2(3H)-ylideneamino)benzenesulfonic acid]
0.001 to 0.1 | 114 | 0.078 | CCn1c(-c2cccc(Cl)c2)cs/c1=N\c1ccc(S(=O)(=O)O)cc1 [Compound 31, (Z)-4-(4-(3-chlorophenyl)-3-ethylthiazol-2(3H)-ylideneamino)benzenesulfonic acid]
0.5 to 1 |  |  | CCn1c(-c2ccccc2OC)cs/c1=N\c1ccc(C(=O)O)cc1 [Compound 32, (Z)-4-(3-ethyl-4-(2-methoxyphenyl)thiazol-2(3H)-ylideneamino)benzoic acid]
0.5 to 1 |  |  | CCn1c(-c2cccc(OC)c2)cs/c1=N\c1ccc(C(=O)O)cc1 [Compound 33, (Z)-4-(3-ethyl-4-(3-methoxyphenyl)thiazol-2(3H)-ylideneamino)benzoic acid]
0.1 to 0.25 |  |  | CCn1c(-c2ccccc2Cl)cs/c1=N\c1ccc(C(=O)O)cc1 [Compound 34, (Z)-4-(4-(2-chlorophenyl)-3-ethylthiazol-2(3H)-ylideneamino)benzoic acid]
0.1 to 0.25 |  |  | CCn1c(-c2cccc(Cl)c2)cs/c1=N\c1ccc(C(=O)O)cc1 [Compound 35, (Z)-4-(4-(3-chlorophenyl)-3-ethylthiazol-2(3H)-ylideneamino)benzoic acid]
0.25 to 0.5 |  |  | CCn1c(-c2ccccc2)cs/c1=N\c1ccc(C(=O)O)cc1 [Compound 36, (Z)-4-(3-ethyl-4-phenylthiazol-2(3H)-ylideneamino)benzoic acid]
0.1 to 0.25 |  |  | CCn1c(-c2ccccc2)cs/c1=N\c1ccc(S(=O)(=O)O)cc1 [Compound 37, (Z)-4-(3-ethyl-4-phenylthiazol-2(3H)-ylideneamino)benzenesulfonic acid]
0.1 to 0.25 |  |  | CCn1c(-c2c(Cl)cccc2Cl)cs/c1=N\c1ccc(C(=O)O)cc1 [Compound 38, (Z)-4-(4-(2,6-dichlorophenyl)-3-ethylthiazol-2(3H)-ylideneamino)benzoic acid]
0.1 to 0.25 |  |  | CCn1c(-c2cccc(Cl)c2Cl)cs/c1=N\c1ccc(C(=O)O)cc1 [Compound 39, (Z)-4-(4-(2,3-dichlorophenyl)-3-ethylthiazol-2(3H)-ylideneamino)benzoic acid]
0.25 to 0.5 | 107 | 0.354 | CCn1c(-c2cccc3ccccc23)cs/c1=N\c1ccc(C(=O)O)cc1 [Compound 40, (Z)-4-(3-ethyl-4-(naphthalen-1-yl)thiazol-2(3H)-ylideneamino)benzoic acid]
0.25 to 0.5 |  |  | CCn1c(-c2ccc3ccccc3c2)cs/c1=N\c1ccc(C(=O)O)cc1 [Compound 41, (Z)-4-(3-ethyl-4-(naphthalen-2-yl)thiazol-2(3H)-ylideneamino)benzoic acid]
0.001 to 0.1 |  |  | CCn1c(-c2ccccc2Br)cs/c1=N\c1ccc(C(=O)O)cc1 [Compound 42, (Z)-4-(4-(2-bromophenyl)-3-ethylthiazol-2(3H)-ylideneamino)benzoic acid]
0.001 to 0.1 |  |  | CCn1c(-c2ccccc2N)cs/c1=N\c1ccc(C(=O)O)cc1 [Compound 43, (Z)-4-(4-(2-aminophenyl)-3-ethylthiazol-2(3H)-ylideneamino)benzoic acid]
0.5 to 1 | 75.2 | 0.604 | CCn1c(-c2ccccc2[N+](=O)[O-])cs/c1=N\c1ccc(C(=O)O)cc1 [Compound 44, (Z)-4-(3-ethyl-4-(2-nitrophenyl)thiazol-2(3H)-ylideneamino)benzoic acid]
0.5 to 1 | 87.9 | 0.526 | CCn1c(-c2ccccc2NC)cs/c1=N\c1ccc(C(=O)O)cc1 [Compound 45, (Z)-4-(3-ethyl-4-(2-(methylamino)phenyl)thiazol-2(3H)-ylideneamino)benzoic acid]
0.5 to 1 |  |  | CCn1c(-c2ccccc2N(C)C)cs/c1=N\c1ccc(C(=O)O)cc1 [Compound 46, (Z)-4-(4-(2-(dimethylamino)phenyl)-3-ethylthiazol-2(3H)-ylideneamino)benzoic acid]
0.1 to 0.25 |  |  | CCn1c(-c2cccc(Br)c2)cs/c1=N\c1ccc(C(=O)O)cc1 [Compound 47, (Z)-4-(4-(3-bromophenyl)-3-ethylthiazol-2(3H)-ylideneamino)benzoic acid]
0.1 to 0.25 |  |  | CCn1c(-c2ccccc2O)cs/c1=N\c1ccc(C(=O)O)cc1 [Compound 48, (Z)-4-(3-ethyl-4-(2-hydroxyphenyl)thiazol-2(3H)-ylideneamino)benzoic acid]
0.25 to 0.5 |  |  | CCn1c(-c2cccc(C#N)c2)cs/c1=N\c1ccc(C(=O)O)cc1 [Compound 49, (Z)-4-(4-(3-cyanophenyl)-3-ethylthiazol-2(3H)-ylideneamino)benzoic acid]
0.1 to 0.25 |  |  | CCn1c(-c2cc(Br)ccc2O)cs/c1=N\c1ccc(C(=O)O)cc1 [Compound 50, (Z)-4-(4-(5-bromo-2-hydroxyphenyl)-3-ethylthiazol-2(3H)-ylideneamino)benzoic acid]
0.1 to 0.25 | 55 | 0.184 | COc1ccc(-c2noc(-c3cccc(C(=O)O)c3)n2)cc1 [Compound 51, 3-[3-(4-Methoxyphenyl)-1,2,4-oxadiazol-5-yl]benzoic acid]
1 to 5 |  |  | COc1ccc(-c2noc(-c3ccc(C(=O)O)cc3)n2)cc1 [Compound 52, 4-(3-(4-methoxyphenyl)-1,2,4-oxadiazol-5-yl)benzoic acid]

— US8362050B2, “Compounds and methods for modulating G protein-coupled receptors” (IRM LLC, priority 2008, dated 2013)
